In one test the test system is Micrococcus luteus. Briefly: Minimum inhibitory concentration against Micrococcus luteus PCI. Type of test: functional.
Test [1] deals with Bacillus. Briefly: Minimum inhibitory concentration against Bacillus sp. TA. The test is classed as functional.
For the next test, the system named is Serratia marcescens. Briefly: Minimum inhibitory concentration against Serratia marcescens SM. The test is classed as functional.
Another test deals with Paecilomyces variotii. Briefly: Minimum inhibitory concentration against Paecilomyces varioti M16. The test is classed as functional.
For another test, the system named is Proteus vulgaris. The experiment in a line: Minimum inhibitory concentration against Proteus vulgaris 101N. Type of test: functional.
A further test deals with Pseudomonas aeruginosa. The experiment in a line: Minimum inhibitory concentration against Pseudomonas aeruginosa 56. Type of test: functional.
The test system of another test is Klebsiella pneumoniae. Briefly: Minimum inhibitory concentration against Klebsiella pneumoniae 369. The test is classed as functional.
The test system of test [2] is Acinetobacter calcoaceticus. Briefly: Minimum inhibitory concentration against Acinetobacter calcoaceticus PCl3. Type of test: functional.
The test system of another test is Mycolicibacterium phlei. The experiment in a line: Minimum inhibitory concentration against Mycobacterium phlei 78. The test is classed as functional.
The next test concerns Priestia megaterium. Briefly: Minimum inhibitory concentration against Bacillus megaterium 164. The test is classed as functional.
The test system of another test is Escherichia coli. Briefly: Minimum inhibitory concentration against Escherichia coli 94. Type of test: functional.
Test [3] has as its system Bacillus. The experiment in a line: Minimum inhibitory concentration against Bacillus sp. E. Type of test: functional.
The next test concerns Enterococcus faecium. Briefly: Minimum inhibitory concentration against Streptococcus faecium ATCC 8043. Type of test: functional.
For the next test, the system named is Candida albicans. Briefly: Minimum inhibitory concentration against yeast Candida albicans 155. The test is classed as functional.
For another test, the system named is Saccharomyces cerevisiae. Briefly: Minimum inhibitory concentration against Saccharomyces cerevisiae 90. Type of test: functional.
A further test relates to Penicillium digitatum. The experiment in a line: Minimum inhibitory concentration against Penicillium digitatum 0184. Type of test: functional.
The next test relates to Streptomyces sp. Briefly: Minimum inhibitory concentration against Gram positive filament Streptomyces cellulose 097. Type of test: functional.
In another test the test system is Serratia. The experiment in a line: Minimum inhibitory concentration against Serratia sp.101. The test is classed as functional.
A further test has as its system Bacillus subtilis. Briefly: Minimum inhibitory concentration against Bacillus subtilis 558. Type of test: functional.
In test [4] the test system is Staphylococcus aureus. Briefly: Minimum inhibitory concentration against Staphylococcus aureus 82. Type of test: functional.
Test [5] concerns Staphylococcus aureus. The experiment in a line: Minimum inhibitory concentration against gram-negative and gram-positive bacterial strains; Not active. Type of test: functional, organism-based.
Test [6] relates to Staphylococcus aureus. The experiment in a line: Compound was evaluated for its antibiotic activity against gram-negative and gram-positive bacterial strains; NA = not active. The test is classed as functional, organism-based.

Values after ≈ are worked out from the molar mass of the structure shown. Active and inactive are the calls of the source. The calls are words filed in the database; no cut-off is given here.

As a reminder, the MIC is the lowest concentration found to suppress growth. Consider `C=C1CCO[C@]2([C@@H](O)[C@@](C)(O)CO)NC(=O)[C@@]1(O)NC2=O` [BICOZAMYCIN], for which the minimal inhibitory concentration (MIC) in the test with Micrococcus luteus, in the test with Bacillus [1], with Serratia marcescens, in the test with Paecilomyces variotii, in the test with Proteus vulgaris and in the test with Pseudomonas aeruginosa was over 1000 µg/mL each time. In addition, the MIC in the test with Klebsiella pneumoniae is 250 µg/mL (≈ 827 µM); in test [2], 1000 µg/mL (≈ 3310 µM); against Mycolicibacterium phlei, 1000 µg/mL (≈ 3310 µM); against Priestia megaterium, over 1000 µg/mL; against Escherichia coli, 250 µg/mL (≈ 827 µM); in the test with Bacillus [3], over 1000 µg/mL. For the same compound, the minimum inhibitory concentration (MIC) against Enterococcus faecium is over 1000 µg/mL; against Candida albicans, over 1000 µg/mL; against Saccharomyces cerevisiae, over 1000 µg/mL; in the test with Penicillium digitatum, over 1000 µg/mL; in the test on Streptomyces sp., 500 µg/mL (≈ 1650 µM); in the test with Serratia, over 1000 µg/mL. The MIC against Bacillus subtilis and against Staphylococcus aureus [4] was over 1000 µg/mL each time.

For `COc1ccc(CN2C(=O)[C@@H]3CCCOC2C(=O)N3Cc2ccc(OC)cc2)cc1`, in the test with Staphylococcus aureus [5], the MIC entry is “inactive”.

Take `O=C1[C@@H]2CCCOC(C(=O)N2Cc2ccccc2)N1Cc1ccccc1`: in the test on Staphylococcus aureus [5], the MIC entry is “inactive”.

With `CN1C(=O)[C@@H]2CCCOC1C(=O)N2C`, the MIC result with Staphylococcus aureus [5] was “inactive”.

Take `C=C1CCOC2C(=O)N(Cc3ccccc3)[C@@H]1C(=O)N2Cc1ccccc1`: the MIC result in the test on Staphylococcus aureus [5] was “inactive”.

As to `C[C@](O)(CO)[C@H](O)C12NC(=O)[C@](O)(CCCO1)NC2=O`, the MIC entry with Staphylococcus aureus [5] is “inactive”.

Turning to `O=C1N[C@H]2CCCOC1NC2=O`, the MIC entry in the test with Staphylococcus aureus [5] is “inactive”.

As to `C=C1CCOC2([C@@H](O)[C@@](C)(O)CO)NC(=O)[C@@]1(O)NC2=O`, the MIC entry in the test on Staphylococcus aureus [5] is “inactive”.

For the compound `O=C1C2OCCC[C@@](O)(C(=O)N2Cc2ccccc2)N1Cc1ccccc1`, the MIC result with Staphylococcus aureus [5] was “inactive”.

In the case of `O=C1[C@@H]2[C@H](CO)COC(C(=O)N2Cc2ccccc2)N1Cc1ccccc1`, in the test with Staphylococcus aureus [5], the MIC result is “inactive”.

Take `O=C1N[C@@]2(O)CCCOC1NC2=O`: the MIC result in the test with Staphylococcus aureus [5] is “inactive”.

Consider `COc1ccc(N2C(=O)[C@@H]3CCCOC2C(=O)N3c2ccc(OC)cc2)cc1`, for which the MIC result with Staphylococcus aureus [5] was “inactive”.

Consider `C=C1COC2C(=O)N(Cc3ccccc3)[C@@H]1C(=O)N2Cc1ccccc1`, for which the MIC entry in the test with Staphylococcus aureus [5] was “inactive”.

`CN1C(=O)[C@]2(C(=O)c3ccccc3)CCOC1C(=O)N2C`: in the test with Staphylococcus aureus [6], the MIC entry is “inactive”.

As for `C=CC1COC2NC(=O)[C@H]1NC2=O` (some centres not stated), the MIC entry with Staphylococcus aureus [6] is “inactive”.

As to `C=C1CCOC2C(=O)N(Cc3ccccc3)[C@]1(O)C(=O)N2Cc1ccccc1`, the MIC in the test on Micrococcus luteus is 500 µg/mL (≈ 1320 µM); against Bacillus [1] it was 250 µg/mL (≈ 661 µM); against Serratia marcescens, over 1000 µg/mL; against Paecilomyces variotii, over 1000 µg/mL; against Proteus vulgaris, over 1000 µg/mL; in the test with Pseudomonas aeruginosa, over 1000 µg/mL. Also, the MIC was over 1000 µg/mL in the test on Klebsiella pneumoniae; over 1000 µg/mL in test [2]; over 1000 µg/mL in the test on Mycolicibacterium phlei; 500 µg/mL (≈ 1320 µM) with Priestia megaterium; over 1000 µg/mL in the test on Escherichia coli; over 1000 µg/mL against Bacillus [3]. In addition, the minimal inhibitory concentration (MIC) was over 1000 µg/mL against Enterococcus faecium; over 1000 µg/mL against Candida albicans; over 1000 µg/mL against Saccharomyces cerevisiae; over 1000 µg/mL against Penicillium digitatum; 500 µg/mL (≈ 1320 µM) against Streptomyces sp.; over 1000 µg/mL against Serratia. In addition, the results for the MIC against Bacillus subtilis and against Staphylococcus aureus [4] were 250 µg/mL (≈ 661 µM) and over 1000 µg/mL, respectively.

As for `CN1C(=O)[C@]2(C(O)c3ccccc3)CCCOC1C(=O)N2C` (some centres not stated), in the test with Staphylococcus aureus [5], the MIC result is “inactive”.

In the case of `C[C@](O)(CO)[C@H](O)C12NC(=O)[C@H](CCCO1)NC2=O`, the MIC entry with Staphylococcus aureus [5] was “inactive”.

`C=C1CCOC2NC(=O)[C@H]1NC2=O`: in the test on Staphylococcus aureus [5], the MIC result is “inactive”.

On to `C=CC1COC2C(=O)N(Cc3ccccc3)[C@@H]1C(=O)N2Cc1ccccc1` (some centres not stated), for which, in the test with Staphylococcus aureus [5], the MIC result is “inactive”.

For `CS[C@@]12CCCOC(C(=O)N1C)N(C)C2=O`, the MIC result in the test with Staphylococcus aureus [5] was “inactive”.

`CN1C(=O)[C@@H]2CCOC1C(=O)N2C`: the MIC entry with Staphylococcus aureus [6] was “inactive”.

As for `CSC12OCCC[C@@](C)(C(=O)N1C)N(C)C2=O`, the MIC result in the test on Staphylococcus aureus [6] was “inactive”.

Turning to `C=C1CCOC2NC(=O)[C@@]1(O)NC2=O`, the MIC result in the test with Staphylococcus aureus [6] was “inactive”.

The record behind these values is ChEMBL document CHEMBL1123009, “Synthesis and antimicrobial evaluation of bicyclomycin analogues” (1985).
